Source: ChEMBL document CHEMBL1201862, “PubChem BioAssay data set” (2004)
Active and inactive are the calls of the source.

Tests used:
[1] = system: Streptococcus sp. 'group A'; assay: growth inhibition of control SK(-) GAS strain, dose response, counter-screen for streptokinase expression inhibitor project, luminescence, kanamycin, BacTiterGlo, confirmation (AID 1900); assay type: functional, organism-based
[2] = molecular target: Beta-galactosidase (Escherichia coli, UniProt Q8VNN2); assay: PubChem AID 485352; assay type: functional
[3] = molecular target: T1, Streptokinase A (Streptococcus pyogenes serotype M1, UniProt P10520); assay: S. pyogenes streptokinase expression inhibitors, potency, dose response, plasminogen activation absorbance, OD405 (AID 1914); assay type: functional, Streptococcus pyogenes M1 GAS;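 note: secreted streptokinase activity via plasminogen activation per viability signal from cell pellet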
T1 sequence (P10520 whole entry): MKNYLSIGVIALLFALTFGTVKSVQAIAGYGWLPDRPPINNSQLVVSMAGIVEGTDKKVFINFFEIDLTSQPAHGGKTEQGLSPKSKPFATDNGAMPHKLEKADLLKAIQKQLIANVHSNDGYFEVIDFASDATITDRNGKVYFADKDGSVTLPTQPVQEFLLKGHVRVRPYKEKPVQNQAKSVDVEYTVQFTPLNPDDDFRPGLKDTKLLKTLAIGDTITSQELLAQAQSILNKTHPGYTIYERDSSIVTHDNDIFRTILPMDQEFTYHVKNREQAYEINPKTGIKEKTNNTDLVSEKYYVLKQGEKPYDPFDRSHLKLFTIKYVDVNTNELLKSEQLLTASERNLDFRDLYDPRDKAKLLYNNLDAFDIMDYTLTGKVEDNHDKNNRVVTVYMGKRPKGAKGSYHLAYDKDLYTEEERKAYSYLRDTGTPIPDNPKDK

[4] = molecular target: T2, Mannose-6-phosphate isomerase (Homo sapiens, UniProt P34949); assay: inhibitors of human PMI, primary screen, biochemical, fluorescence intensity, coupled assay (AID 1209)
T2 sequence (P34949 whole entry): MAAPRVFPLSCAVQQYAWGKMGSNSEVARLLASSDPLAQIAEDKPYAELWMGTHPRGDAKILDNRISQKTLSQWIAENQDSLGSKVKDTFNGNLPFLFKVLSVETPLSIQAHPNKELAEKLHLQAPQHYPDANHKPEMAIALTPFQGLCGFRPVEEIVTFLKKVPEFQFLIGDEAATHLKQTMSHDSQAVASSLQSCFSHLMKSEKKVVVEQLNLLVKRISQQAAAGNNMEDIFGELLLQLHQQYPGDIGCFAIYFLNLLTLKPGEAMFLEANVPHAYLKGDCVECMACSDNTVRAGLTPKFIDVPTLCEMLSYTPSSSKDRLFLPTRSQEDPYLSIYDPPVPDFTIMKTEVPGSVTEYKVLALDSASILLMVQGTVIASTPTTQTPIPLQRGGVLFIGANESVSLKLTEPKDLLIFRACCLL

[5] = molecular target: T3, Type-1 angiotensin II receptor (Homo sapiens, UniProt P30556); assay: AT1 receptor antagonists, dose response, selectivity assay for APJ receptor antagonist project, cell-based, uHTS hits (AID 463214); assay type: functional;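 note: antagonist potency against angiotensin II stimulated AT1 response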
T3 sequence (P30556 whole entry): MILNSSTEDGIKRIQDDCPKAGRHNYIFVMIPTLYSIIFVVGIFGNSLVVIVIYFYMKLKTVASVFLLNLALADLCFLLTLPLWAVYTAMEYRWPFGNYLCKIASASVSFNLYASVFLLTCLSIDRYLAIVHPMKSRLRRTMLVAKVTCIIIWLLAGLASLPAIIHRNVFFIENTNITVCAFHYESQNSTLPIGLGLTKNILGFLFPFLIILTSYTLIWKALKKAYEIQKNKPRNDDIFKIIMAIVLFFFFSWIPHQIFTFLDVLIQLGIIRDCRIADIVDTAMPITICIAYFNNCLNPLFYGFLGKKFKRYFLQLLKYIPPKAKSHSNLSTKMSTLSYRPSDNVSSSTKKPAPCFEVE

[6] = system: Streptococcus; assay: Group A Streptococcus viability loss, dose response, counter-screen for streptokinase expression inhibitor project, luminescence, BacTiterGlo (AID 1915); assay type: functional, organism-based;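 note: potency for reduction of bacterial viability or growth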
[7] = molecular target: Glucose-6-phosphate 1-dehydrogenase (Homo sapiens, UniProt P11413); assay: human G6PD enzyme inhibitors, dose response, selectivity assay for P. falciparum G6PD inhibitor project, biochemical, fluorescence (AID 504792); assay type: functional
[8] = molecular target: T4, Endoribonuclease toxin MazF (Escherichia coli K-12, UniProt P0AE70); assay: MazF toxin RNase activators, dose response, biochemical, fluorescence, single-stranded RNA substrate, uHTS hits (AID 588481); assay type: functional
T4 sequence (P0AE70 whole entry): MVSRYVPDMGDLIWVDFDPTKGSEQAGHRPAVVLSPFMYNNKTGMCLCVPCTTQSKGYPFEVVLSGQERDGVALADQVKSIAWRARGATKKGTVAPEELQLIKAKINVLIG

[9] = system: Vero; assay: Vero cell cytotoxicity, cytotoxicity control for flavivirus capping enzyme inhibitors (AID 588742); assay type: functional; settings: Chlorocebus sabaeus
[10] = molecular target: T4, Endoribonuclease toxin MazF; assay: fluorescent RNA oligo signal without MazF, dose response, counter-screen for MazEF activator project, biochemical, fluorescence, single-stranded RNase substrate (AID 588502); assay type: functional
[11] = molecular target: Genome polyprotein (dengue virus type 2, UniProt P29990); assay: Dengue-2 NS5 methyltransferase inhibitors, primary screen, biochemical, confirmation dose response (AID 588689); assay type: functional
[12] = Shn3 3'UTR reporter inhibitors, dose response, cell-based, Clone20 osteoblasts, firefly luciferase, cherry-picked (AID 624132); assay type: functional;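 note: firefly luciferase luminescence from reporter carrying the Shn3 3'UTR in osteoblasts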
[13] = HepG2 cell cytotoxicity, dose response, cytotoxicity control for Shn3 inhibitor project, CellTiter-Glo, cherry-picked (AID 624134); assay type: functional, cell-based
[14] = control 3'UTR Renilla luciferase suppression, dose response, counter-screen for Shn3 inhibitor project, cell-based, Clone20-Shn3RL, cherry-picked (AID 624133); assay type: functional
[15] = molecular target: T5, Fatty acid synthase (Homo sapiens, UniProt P49327); assay: FAS thioesterase domain inhibitors, dose response, biochemical, endpoint fluorescence intensity, uHTS hits (AID 624327); assay type: functional;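 note: fluorescence from hydrolysis of an O-methyl fluorescein acyl ester substrate by the enzyme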
[16] = molecular target: T5, Fatty acid synthase; assay: FAS thioesterase domain inhibitors, dose response, biochemical, kinetic fluorescence intensity (AID 624326); assay type: functional;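 note: rate of fluorescence rise from hydrolysis of a fluorogenic O-methyl fluorescein ester substrate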
[17] = molecular target: T6, Sentrin-specific protease 8 (Homo sapiens, UniProt Q96LD8); assay: SENP8 protease inhibitors, SAR follow-up, biochemical, luminescence (AID 504501); assay type: functional
T6 sequence (Q96LD8 whole entry): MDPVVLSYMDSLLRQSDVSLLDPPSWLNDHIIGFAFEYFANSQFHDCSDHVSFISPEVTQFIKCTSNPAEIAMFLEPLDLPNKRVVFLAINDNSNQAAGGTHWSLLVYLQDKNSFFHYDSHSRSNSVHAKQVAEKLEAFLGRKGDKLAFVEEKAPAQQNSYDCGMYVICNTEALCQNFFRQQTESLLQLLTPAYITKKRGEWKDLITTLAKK

[18] = molecular target: T7, Caspase-3 (Homo sapiens, UniProt P42574); assay: SAR Analysis of small molecule inhibitors of Sentrin-specific proteases (SENPs) using a Caspase-3 Selectivity assay. [Related pubchem assays (depositor defined):AID2540, AID2599, AID434973, AID489001]; assay type: functional
T7 sequence (P42574 whole entry): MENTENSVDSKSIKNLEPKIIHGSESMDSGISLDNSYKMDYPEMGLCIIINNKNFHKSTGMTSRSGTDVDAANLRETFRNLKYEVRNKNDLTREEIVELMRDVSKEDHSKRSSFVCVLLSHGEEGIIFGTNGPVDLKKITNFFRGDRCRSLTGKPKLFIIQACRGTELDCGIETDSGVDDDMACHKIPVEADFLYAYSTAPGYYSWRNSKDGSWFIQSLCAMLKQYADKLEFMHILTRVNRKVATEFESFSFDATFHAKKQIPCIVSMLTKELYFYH

[19] = molecular target: T8, Sentrin-specific protease 6 (Homo sapiens, UniProt Q9GZR1); assay: SAR Analysis of small molecule inhibitors of Sentrin-specific protease 6 (SENP6) using a Luminescent assay. [Related pubchem assays (depositor defined):AID2582, AID2599]; assay type: functional
T8 sequence (Q9GZR1 whole entry): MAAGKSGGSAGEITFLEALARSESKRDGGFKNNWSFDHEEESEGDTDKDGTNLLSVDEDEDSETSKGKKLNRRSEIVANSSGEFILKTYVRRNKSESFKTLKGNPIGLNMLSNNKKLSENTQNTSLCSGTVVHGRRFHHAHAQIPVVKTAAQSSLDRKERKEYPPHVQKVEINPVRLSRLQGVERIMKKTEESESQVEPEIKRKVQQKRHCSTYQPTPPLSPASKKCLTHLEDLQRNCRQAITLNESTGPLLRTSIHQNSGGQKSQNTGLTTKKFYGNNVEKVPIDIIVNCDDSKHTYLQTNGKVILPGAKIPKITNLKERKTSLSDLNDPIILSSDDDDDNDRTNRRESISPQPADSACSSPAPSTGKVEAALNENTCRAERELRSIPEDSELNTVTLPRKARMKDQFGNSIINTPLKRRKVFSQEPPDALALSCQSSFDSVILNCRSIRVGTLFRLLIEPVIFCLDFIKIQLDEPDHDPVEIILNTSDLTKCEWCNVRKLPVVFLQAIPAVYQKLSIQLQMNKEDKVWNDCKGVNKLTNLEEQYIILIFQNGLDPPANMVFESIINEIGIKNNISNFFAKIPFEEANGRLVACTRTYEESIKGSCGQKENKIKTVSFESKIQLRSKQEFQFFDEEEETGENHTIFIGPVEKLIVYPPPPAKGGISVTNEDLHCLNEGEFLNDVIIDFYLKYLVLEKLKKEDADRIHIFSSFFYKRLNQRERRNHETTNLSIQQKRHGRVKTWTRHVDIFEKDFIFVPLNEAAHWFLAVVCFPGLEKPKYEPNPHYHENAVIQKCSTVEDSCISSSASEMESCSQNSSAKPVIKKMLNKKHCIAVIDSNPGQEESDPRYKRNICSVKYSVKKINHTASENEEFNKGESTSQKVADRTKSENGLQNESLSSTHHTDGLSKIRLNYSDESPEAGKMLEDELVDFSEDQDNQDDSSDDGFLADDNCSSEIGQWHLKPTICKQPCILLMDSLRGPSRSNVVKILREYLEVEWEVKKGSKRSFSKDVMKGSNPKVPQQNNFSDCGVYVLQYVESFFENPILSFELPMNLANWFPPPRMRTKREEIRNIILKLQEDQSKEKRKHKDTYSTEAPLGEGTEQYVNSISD

[20] = molecular target: T9, Sentrin-specific protease 7 (Homo sapiens, UniProt Q9BQF6); assay: SENP7 protease inhibitors, SAR follow-up, biochemical, luminescence (AID 504497); assay type: functional
T9 sequence (Q9BQF6 whole entry): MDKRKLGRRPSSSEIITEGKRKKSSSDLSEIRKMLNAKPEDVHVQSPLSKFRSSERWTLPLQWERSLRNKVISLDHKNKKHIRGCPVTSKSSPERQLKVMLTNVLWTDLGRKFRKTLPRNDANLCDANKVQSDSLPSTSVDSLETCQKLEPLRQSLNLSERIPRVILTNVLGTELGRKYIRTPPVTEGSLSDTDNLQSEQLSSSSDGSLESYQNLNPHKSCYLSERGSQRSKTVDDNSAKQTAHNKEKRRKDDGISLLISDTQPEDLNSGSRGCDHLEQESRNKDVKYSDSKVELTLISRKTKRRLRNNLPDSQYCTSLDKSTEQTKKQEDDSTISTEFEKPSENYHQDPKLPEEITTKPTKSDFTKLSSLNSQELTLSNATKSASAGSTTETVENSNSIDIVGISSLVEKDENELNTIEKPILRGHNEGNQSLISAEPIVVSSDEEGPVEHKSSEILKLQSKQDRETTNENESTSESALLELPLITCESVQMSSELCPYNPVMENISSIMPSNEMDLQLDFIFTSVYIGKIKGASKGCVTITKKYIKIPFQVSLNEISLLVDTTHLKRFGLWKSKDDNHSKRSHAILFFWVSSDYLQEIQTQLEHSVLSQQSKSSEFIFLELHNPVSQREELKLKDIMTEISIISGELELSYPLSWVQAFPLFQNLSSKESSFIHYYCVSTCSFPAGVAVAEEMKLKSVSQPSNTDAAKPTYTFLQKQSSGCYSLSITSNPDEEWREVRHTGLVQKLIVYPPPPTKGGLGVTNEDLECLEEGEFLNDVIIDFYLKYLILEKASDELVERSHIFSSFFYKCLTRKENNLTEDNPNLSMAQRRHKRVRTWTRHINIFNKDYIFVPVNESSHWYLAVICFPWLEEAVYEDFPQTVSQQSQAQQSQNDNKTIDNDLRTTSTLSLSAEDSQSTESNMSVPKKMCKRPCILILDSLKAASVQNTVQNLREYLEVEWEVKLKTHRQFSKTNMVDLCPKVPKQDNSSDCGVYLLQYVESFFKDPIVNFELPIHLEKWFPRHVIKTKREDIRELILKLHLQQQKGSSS

[21] = molecular target: T7, Caspase-3; assay type: functional
[22] = molecular target: T9, Sentrin-specific protease 7; assay type: functional
[23] = molecular target: T8, Sentrin-specific protease 6; assay type: functional
[24] = molecular target: T6, Sentrin-specific protease 8; assay type: functional

T5 sequence (P49327 whole entry, the tested form may be a part): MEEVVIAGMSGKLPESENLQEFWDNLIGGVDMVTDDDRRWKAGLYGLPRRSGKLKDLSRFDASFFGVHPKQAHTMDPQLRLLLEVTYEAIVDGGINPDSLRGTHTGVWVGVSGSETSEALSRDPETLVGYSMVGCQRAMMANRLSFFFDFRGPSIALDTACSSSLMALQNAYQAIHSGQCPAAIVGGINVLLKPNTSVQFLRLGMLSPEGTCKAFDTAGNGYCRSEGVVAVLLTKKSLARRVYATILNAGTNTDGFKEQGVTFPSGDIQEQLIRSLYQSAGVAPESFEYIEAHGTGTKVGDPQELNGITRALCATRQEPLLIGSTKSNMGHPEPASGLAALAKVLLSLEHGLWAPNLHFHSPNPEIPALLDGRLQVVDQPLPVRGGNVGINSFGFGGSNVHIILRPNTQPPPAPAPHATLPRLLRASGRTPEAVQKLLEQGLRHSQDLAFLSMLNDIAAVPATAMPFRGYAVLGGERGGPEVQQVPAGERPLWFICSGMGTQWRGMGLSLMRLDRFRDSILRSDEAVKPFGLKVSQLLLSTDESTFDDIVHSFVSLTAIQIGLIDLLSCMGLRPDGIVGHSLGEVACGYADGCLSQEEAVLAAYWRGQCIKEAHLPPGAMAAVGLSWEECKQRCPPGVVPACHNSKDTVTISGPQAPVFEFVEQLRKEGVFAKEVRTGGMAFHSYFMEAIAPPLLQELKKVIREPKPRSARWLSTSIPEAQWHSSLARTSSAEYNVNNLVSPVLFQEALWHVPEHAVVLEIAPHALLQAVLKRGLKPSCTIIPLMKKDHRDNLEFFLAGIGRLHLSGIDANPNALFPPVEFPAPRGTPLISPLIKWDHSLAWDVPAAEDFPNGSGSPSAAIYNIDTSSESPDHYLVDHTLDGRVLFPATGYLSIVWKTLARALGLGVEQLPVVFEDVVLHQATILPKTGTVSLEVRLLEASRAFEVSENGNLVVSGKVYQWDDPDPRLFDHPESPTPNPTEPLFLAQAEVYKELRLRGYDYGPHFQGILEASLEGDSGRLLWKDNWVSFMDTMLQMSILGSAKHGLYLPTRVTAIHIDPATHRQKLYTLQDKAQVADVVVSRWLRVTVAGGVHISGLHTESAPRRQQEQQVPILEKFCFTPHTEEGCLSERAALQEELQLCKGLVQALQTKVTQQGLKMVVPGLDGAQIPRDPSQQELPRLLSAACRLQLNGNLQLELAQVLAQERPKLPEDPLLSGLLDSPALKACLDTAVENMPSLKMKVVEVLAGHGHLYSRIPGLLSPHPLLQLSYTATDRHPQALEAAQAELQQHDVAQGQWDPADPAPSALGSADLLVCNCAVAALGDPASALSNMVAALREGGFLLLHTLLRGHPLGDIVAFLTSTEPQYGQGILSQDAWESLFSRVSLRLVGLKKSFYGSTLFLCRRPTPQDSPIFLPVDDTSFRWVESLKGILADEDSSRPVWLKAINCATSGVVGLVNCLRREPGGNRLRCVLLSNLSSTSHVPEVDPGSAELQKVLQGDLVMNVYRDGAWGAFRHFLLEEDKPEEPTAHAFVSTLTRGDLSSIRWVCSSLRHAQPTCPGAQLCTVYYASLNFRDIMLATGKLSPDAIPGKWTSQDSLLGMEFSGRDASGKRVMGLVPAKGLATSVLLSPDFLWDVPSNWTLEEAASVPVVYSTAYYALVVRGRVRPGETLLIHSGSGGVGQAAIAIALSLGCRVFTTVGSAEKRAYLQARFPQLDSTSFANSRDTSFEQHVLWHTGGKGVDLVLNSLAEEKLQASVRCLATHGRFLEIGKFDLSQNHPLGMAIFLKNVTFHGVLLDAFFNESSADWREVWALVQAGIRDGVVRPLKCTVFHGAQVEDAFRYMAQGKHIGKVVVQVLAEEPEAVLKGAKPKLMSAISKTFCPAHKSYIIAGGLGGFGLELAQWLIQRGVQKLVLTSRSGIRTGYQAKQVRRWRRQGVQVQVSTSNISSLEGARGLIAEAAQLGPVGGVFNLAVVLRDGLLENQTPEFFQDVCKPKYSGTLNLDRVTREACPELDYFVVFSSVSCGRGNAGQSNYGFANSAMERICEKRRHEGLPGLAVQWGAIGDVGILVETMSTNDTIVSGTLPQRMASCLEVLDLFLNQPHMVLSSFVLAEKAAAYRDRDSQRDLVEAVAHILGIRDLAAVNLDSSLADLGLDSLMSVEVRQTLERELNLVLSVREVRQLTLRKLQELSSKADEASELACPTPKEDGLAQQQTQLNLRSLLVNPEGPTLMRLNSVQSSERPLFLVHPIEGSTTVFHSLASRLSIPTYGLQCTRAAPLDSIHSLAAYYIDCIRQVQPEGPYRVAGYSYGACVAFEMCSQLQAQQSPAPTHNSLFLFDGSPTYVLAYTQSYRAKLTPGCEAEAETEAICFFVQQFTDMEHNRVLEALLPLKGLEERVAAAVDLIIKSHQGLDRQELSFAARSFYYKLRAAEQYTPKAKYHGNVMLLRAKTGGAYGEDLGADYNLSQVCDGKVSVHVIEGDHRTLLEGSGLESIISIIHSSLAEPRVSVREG
Glucose-6-phosphate 1-dehydrogenase, sequence (P11413 whole entry): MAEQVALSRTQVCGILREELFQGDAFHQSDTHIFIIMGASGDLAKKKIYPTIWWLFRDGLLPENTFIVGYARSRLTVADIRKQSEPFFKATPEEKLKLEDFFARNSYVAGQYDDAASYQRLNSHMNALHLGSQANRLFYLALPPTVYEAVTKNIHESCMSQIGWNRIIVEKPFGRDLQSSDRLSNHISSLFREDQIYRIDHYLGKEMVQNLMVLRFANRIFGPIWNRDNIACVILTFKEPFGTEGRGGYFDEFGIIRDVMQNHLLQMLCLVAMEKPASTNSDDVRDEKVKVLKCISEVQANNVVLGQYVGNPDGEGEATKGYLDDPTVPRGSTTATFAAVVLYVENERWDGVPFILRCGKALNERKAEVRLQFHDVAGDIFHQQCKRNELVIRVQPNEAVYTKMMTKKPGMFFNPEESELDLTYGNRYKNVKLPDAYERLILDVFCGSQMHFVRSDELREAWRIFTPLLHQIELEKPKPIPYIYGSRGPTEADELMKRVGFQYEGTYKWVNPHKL
Genome polyprotein, sequence (P29990 2492-3391 limits assumed): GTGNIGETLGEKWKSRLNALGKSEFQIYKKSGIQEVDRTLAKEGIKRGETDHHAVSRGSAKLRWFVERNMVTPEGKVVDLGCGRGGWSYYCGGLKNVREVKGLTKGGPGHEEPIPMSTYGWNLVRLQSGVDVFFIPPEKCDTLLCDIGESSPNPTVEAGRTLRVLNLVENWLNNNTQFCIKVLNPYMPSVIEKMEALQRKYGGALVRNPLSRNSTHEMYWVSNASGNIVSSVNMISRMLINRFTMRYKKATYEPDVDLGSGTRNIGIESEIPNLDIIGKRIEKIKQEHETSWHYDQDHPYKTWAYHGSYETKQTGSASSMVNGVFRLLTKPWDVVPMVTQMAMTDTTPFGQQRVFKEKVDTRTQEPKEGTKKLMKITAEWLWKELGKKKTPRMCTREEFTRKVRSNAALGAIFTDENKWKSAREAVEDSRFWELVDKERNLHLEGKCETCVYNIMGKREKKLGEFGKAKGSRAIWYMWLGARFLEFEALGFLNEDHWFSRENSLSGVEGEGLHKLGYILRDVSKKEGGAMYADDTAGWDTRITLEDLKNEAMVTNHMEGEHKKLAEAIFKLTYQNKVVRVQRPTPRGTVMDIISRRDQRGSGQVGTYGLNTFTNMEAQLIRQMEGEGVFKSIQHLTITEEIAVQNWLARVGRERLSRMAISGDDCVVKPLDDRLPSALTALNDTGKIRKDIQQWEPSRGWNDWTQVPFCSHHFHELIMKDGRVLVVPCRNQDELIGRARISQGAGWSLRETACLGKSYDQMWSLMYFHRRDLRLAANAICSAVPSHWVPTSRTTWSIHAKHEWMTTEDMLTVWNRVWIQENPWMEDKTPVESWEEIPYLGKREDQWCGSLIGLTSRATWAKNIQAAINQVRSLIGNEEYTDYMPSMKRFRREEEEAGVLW
Beta-galactosidase, sequence (Q8VNN2 whole entry): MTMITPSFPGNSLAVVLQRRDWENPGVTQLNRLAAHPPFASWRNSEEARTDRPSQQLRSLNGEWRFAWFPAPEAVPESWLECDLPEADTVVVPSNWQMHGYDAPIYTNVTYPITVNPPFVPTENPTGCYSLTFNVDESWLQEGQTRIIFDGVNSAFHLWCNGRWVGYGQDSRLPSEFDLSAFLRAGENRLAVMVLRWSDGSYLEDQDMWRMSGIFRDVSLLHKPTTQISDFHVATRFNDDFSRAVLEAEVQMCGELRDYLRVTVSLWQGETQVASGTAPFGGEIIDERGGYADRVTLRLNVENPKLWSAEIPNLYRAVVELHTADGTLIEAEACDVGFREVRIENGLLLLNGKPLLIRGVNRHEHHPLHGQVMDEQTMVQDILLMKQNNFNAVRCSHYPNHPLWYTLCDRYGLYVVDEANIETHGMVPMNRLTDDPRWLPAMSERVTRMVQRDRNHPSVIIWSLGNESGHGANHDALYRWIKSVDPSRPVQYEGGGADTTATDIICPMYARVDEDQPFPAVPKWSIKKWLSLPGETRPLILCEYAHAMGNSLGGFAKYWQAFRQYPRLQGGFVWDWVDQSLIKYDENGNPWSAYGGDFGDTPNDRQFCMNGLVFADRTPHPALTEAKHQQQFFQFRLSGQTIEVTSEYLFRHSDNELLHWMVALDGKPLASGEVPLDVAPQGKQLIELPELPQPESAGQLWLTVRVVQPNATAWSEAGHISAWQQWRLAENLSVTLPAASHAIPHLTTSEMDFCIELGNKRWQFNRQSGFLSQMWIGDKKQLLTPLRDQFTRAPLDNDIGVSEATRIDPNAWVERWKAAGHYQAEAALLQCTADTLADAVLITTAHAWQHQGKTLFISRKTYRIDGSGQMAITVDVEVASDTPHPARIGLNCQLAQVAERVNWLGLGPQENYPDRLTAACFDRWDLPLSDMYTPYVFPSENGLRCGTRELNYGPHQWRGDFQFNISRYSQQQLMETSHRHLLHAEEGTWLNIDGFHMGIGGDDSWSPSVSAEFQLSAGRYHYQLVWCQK

O=[N+]([O-])c1c(NCCCO)cc(Sc2nc3ccccc3s2)c2nonc12
EC50 [1]: 2.2 µM (active) | EC50 [2]: > 40 µM (inactive) | EC50 [3]: 5.49 µM (active) | IC50 [4]: > 50 µM (not active) | IC50 [5]: 2.05 µM (active) | EC50 [6]: 3.07 µM (active) | IC50 [7]: > 80 µM (inactive) | EC50 [8]: > 99 µM (inactive) | CC50 [9]: 26.2 µM (active) | EC50 [10]: 44.1 µM (inactive) | IC50 [11]: 23 µM (active) | AC50 [12]: 1.58 µM (active) | AC50 [13]: 26.2 µM (active) | AC50 [14]: 8.01 µM (active) | IC50 [15]: 2.37 µM (active) | IC50 [16]: 1.95 µM (active)

O=C(NN=c1c(=O)c2ccccc2c1=O)c1ccncc1
IC50 [17]: 33.3 µM (active) | IC50 [18]: 76.5 µM (active) | IC50 [19]: 9.3 µM (active) | IC50 [20]: 17.8 µM (active)

CC(=O)Nc1ccc(-c2nc3cc(Cl)ccc3o2)cc1
IC50 [21]: 54.9 µM (active) | IC50 [22]: 2.77 µM (active) | IC50 [23]: > 100 µM (inactive) | IC50 [24]: > 100 µM (inactive) | IC50 [17]: > 99 µM (inactive) | IC50 [18]: 10.4 µM (active) | IC50 [19]: > 99 µM (inactive) | IC50 [20]: 2.7 µM (active)
